# Reference: patent US20090136434A1, “Tyrosinase enzyme inhibitors from fungal hydroxylation of tibolone” (HEJ Research Institute, priority 2007, published 2009)
# Biological target: mushroom tyrosinase
# Experiment: Tyrosinase inhibition assay (o-diphenolase activity, L-DOPA as substrate)
# Assay type: biochemical
# Details: mushroom tyrosinase 30 units (28 nM), L-DOPA 0.5 mM, pH 6.8, absorbance at 475 nm, mean ± S.E.M., at least triplicates; read-out: IC50 ± SEM (in μM), tyrosinase inhibitory activity
# Experimental: Tyrosinase inhibition assays were performed in 96-well microplate format using SpectraMax 340 microplate reader (Molecular Devices, CA, USA) according to the method developed by Hearing (1987). Briefly, first the compounds were screened for the o-diphenolase inhibitory activity of tyrosinase using L-DOPA as substrate. […] Compounds were dissolved in methanol to a concentration of 2.5%. 30 units of mushroom tyrosinase (28 nM from Sigma Chemical Co., USA) first preincubated with the compounds in […] Na-phosphate buffer (pH 6.8) for 10 min at 25° C. Then, the L-DOPA (0.5 mM) was added to the reaction mixture and the enzyme reaction was monitored by measuring the change in absorbance at 475 nm (at 37° C.) due to the formation of the DOPA chrome for 10 min. The percent inhibition of the enzyme was calculated as =[…], wherein the B and S are absorbance for the blank and samples, respectively. After screening, the compounds median inhibitory concentration (IC50) was also calculated. […] (Hearing et al., Int J Biochem, 19(12): 1141-71987).
row,SMILES,IC50 [µM]
1,"C#CC1(O)CC(O)C2C3C(C)CC4=C(CCC(=O)C4)C3CCC21C (stereo not drawn) [Metabolite 2, 15β-Hydroxytibolone]",50.86 ± 0.36
2,"C#CC1(O)CCC2C3C(C)C(O)C4=CC(=O)CCC4C3CCC21C (stereo not drawn) [Metabolite 7, 6β-Hydroxy-Δ^4-Tibolone]",36.14 ± 0.21
3,"N[C@@H](Cn1ccc(=O)c(O)c1)C(=O)O [L-Mimosine, L-mimosine, reference compound]",3.68 ± 0.022
4,"C#CC1(O)CCC2C3C(C)C(OC)C4=CC(=O)CCC4C3CCC21C (stereo not drawn) [Metabolite 8, 6β-Methoxy-Δ^4-Tibolone]",25.15 ± 0.24
5,"C#CC1(O)CCC2C3C(C)CC4=CC(=O)CCC4(O)C3CCC21C (stereo not drawn) [Metabolite 4, 10β-Hydroxy-Δ^4-Tibolone]",119.4 ± 0.2
6,"C#CC1(O)CC(O)C2C3C(C)CC4=C(CCC(=O)C4)C3C(O)CC21C (stereo not drawn) [Metabolite 5, 11α,15β-Dihydroxytibolone]",5.12 ± 0.67
7,"C#CC1(O)CCC2C3C(C)CC4=CC(=O)CCC4C3CCC21C (stereo not shown) [Metabolite 3, Δ^4-Tibolone]",8.19 ± 0.54
8,"C#CC1(O)CCC2C3C(CCC21C)C1=C(CC(=O)CC1)C(O)C3C (stereo not drawn) [Metabolite 1, 6β-Hydroxytibolone]",7.45 ± 0.21
9,"C#CC1(O)CC(O)C2C3C(C)C=C4CC(=O)CCC4C3C(O)CC21C (stereo not drawn) [Metabolite 6, 11α,15β-Dihydroxy-Δ^5-Tibolone]",7.1 ± 0.13

# System: not given
# Experiment: not given
# Details: not given
row,SMILES,melting point [°C]
1,"C#CC1(O)CC(O)C2C3C(C)CC4=C(CCC(=O)C4)C3C(O)CC21C (stereo not drawn) [Metabolite 5, 11α,15β-Dihydroxytibolone]",208 to 210
2,"C#CC1(O)CCC2C3C(CCC21C)C1=C(CC(=O)CC1)C(O)C3C (stereo not drawn) [Metabolite 1, 6β-Hydroxytibolone]",202 to 205
3,"C#CC1(O)CC(O)C2C3C(C)C=C4CC(=O)CCC4C3C(O)CC21C (stereo not drawn) [Metabolite 6, 11α,15β-Dihydroxy-Δ^5-Tibolone]",207 to 211

# System: Salmonella typhimurium
# Experiment: not given
# Details: studies referred to, no data of the applicant; cited from earlier work
row,SMILES,mutagenic activity in a Salmonella typhimurium assay
1,O=c1cc(CO)occ1O [Kojic acid],weak mutagenic activity
